From patent US9573926B2, “Amidoalkylenyl and amidoaryl esters, compositions thereof, and methods for their use” (Allergan, Inc., priority 2014, dated 2017)

Experiment: Aqueous stability of formulated compound (% remaining over time)
Assay type: physicochemical
Conditions: 0.0005% w/v (5 ppm) in pH 6 buffer contain 1% PS80, n = 1

Row | Structure (SMILES) | % Remaining (25° C., 14 days) [%] | % Remaining (25° C., 28 days) [%] | % Remaining (40° C., 14 days) [%] | % Remaining (40° C., 28 days) [%] | % Remaining (60° C., 14 days) [%] | % Remaining (60° C., 28 days) [%]
1 | CC(=O)NCCCOC(=O)c1ccc(CCC[C@@H]2[C@@H](CCc3cc(Cl)cc(Cl)c3)[C@H](O)C[C@H]2Cl)s1 [Compound 3, 3-Acetamidopropyl 5-(3-((1R,2R,3R,5R)-5-chloro-2-(3,5-dichlorophenethyl)-3-hydroxycyclopentyl)propyl)thiophene-2-carboxylate] | 99.2 | 103.5 | 99.8 | 100.5 | 99.4 | 98.6
2 | CC(=O)NCCOC(=O)c1ccc(CCC[C@@H]2[C@@H](CCc3cc(Cl)cc(Cl)c3)[C@H](O)C[C@H]2Cl)s1 [Compound 2, 2-Acetamidoethyl 5-(3-((1R,2R,3R,5R)-5-chloro-2-(3,5-dichlorophenethyl)-3-hydroxycyclopentyl)propyl)thiophene-2-carboxylate] | 99.3 | 99.6 | 99.1 | 99.5 | 98.6 | 97.0
